Data from patent US12440481B2, “Esters and carbamates as modulators of sodium channels” (VERTEX PHARMACEUTICALS INCORPORATED, priority 2019, dated 2025).

Target: human NaV 1.8 (Homo sapiens, UniProt Q9Y5Y9)
Assay: E-VIPR Assay for Detecting and Measuring NaV Inhibition Properties
Format: cell-based
Settings: HEK cells expressing a truncated form of human NaV 1.8; HS = human serum; read-out: EVIPR HS IC50
Text: E-VIPR Assay for Detecting and Measuring NaV Inhibition Properties
Sodium ion channels are voltage-dependent proteins that can be activated by inducing membrane voltage changes by applying electric fields. The electrical stimulation instrument and methods of use, referred to as E-VIPR, are described in International Publication No. WO 2002/008748 A3 and C.-J. Huang et al. Characterization of voltage-gated sodium channel blockers by electrical stimulation and fluorescence detection of membrane potential, 24 Nature Biotech. 439-46 (2006), both of which are incorporated by reference in their entirety. The instrument comprises a microtiter plate handler, an optical system for exciting the coumarin dye while simultaneously recording the coumarin and oxonol emissions, a waveform generator, a current- or voltage-controlled amplifier, and parallel electrode pairs that are inserted into assay plate wells. Under integrated computer control, this instrument passes user-programmed electrical stimulus protocols to cells within the wells of the microtiter plate.
16-20 hours prior to running the assay on E-VIPR, HEK cells expressing a truncated form of human NaV 1.8 with full channel activity were seeded into microtiter 384-well plates, pre-coated with matrigel, at a density of 25,000 cells per well. 2.5-5% KIR2.1 Bacmam virus was added to the final cell suspension before seeding into cell plates. HEK cells were grown in Dulbecco's Modified Eagle's Medium (DMEM) supplemented with 10% FBS (Fetal Bovine Serum, qualified; Sigma #F4135), 1% NEAA (Non-Essential Amino Acids, Gibco #11140), 1% HEPES (Gibco #15630), 1% Pen-Strep (Penicillin-Streptomycin; Gibco #15140) and 5 μg/ml Blasticidin (Gibco #R210-01). Cells were expanded in vented cap cell culture flasks, with 90-95% humidity and 5% CO2.
Reagents and Stock Solutions:
• 100 mg/mL Pluronic F-127 (Sigma #P2443), in dry DMSO • Compound Plates: Corning 384-well Polypropylene Round Bottom #3656 • Cell Plates: 384-well tissue culture treated plates (Greiner #781091-1B) • 2.5-5% KIR 2.1 Bacmam virus (produced in-house), prepared as described in Section 3.3 of J. A. Fornwald et al., Gene Expression in Mammalian Cells Using BacMam, a Modified Baculovirus System, 1350 Methods in Molecular Biology 95-116 (2016), the entire contents of which are incorporated by reference. The concentration used can be dependent on viral titer of each batch. • 5 mM DiSBAC6 (3), a voltage sensitive oxonol acceptor (CAS number 169211-44-3; 5-[3-(1,3-dihexylhexahydro-4,6-dioxo-2-thioxo-5-pyrimidinyl)-2-propen-1-ylidene]-1,3-dihexyldihydro-2-thioxo-4,6(1H,5H)-pyrimidinedione), in dry DMSO. The preparation of DiSBAC6 (3) is analogous to that of DiSBAC4 (3) as described in Voltage Sensing by Fluorescence Resonance Energy Transfer in Single Cells, Gonzalez, J. E. and Tsien, R. Y. (1995) Biophys. J. 69, 1272-1280. • 5 mM CC2-DMPE, a commercially available membrane-bound coumarin phospholipid FRET donor (ThermoFisher Scientific catalog number K1017, CAS number 393782-57-5; tetradecanoic acid, 1,1′-[(1R)-1-[8-(6-chloro-7-hydroxy-2-oxo-2H-1-benzopyran-3-yl)-3-hydroxy-3-oxido-8-oxo-2,4-dioxa-7-aza-3-phosphaoct-1-yl]-1,2-ethanediyl] ester) was prepared in dry DMSO. […]

human NaV 1.8, sequence (Q9Y5Y9 whole entry, looked up): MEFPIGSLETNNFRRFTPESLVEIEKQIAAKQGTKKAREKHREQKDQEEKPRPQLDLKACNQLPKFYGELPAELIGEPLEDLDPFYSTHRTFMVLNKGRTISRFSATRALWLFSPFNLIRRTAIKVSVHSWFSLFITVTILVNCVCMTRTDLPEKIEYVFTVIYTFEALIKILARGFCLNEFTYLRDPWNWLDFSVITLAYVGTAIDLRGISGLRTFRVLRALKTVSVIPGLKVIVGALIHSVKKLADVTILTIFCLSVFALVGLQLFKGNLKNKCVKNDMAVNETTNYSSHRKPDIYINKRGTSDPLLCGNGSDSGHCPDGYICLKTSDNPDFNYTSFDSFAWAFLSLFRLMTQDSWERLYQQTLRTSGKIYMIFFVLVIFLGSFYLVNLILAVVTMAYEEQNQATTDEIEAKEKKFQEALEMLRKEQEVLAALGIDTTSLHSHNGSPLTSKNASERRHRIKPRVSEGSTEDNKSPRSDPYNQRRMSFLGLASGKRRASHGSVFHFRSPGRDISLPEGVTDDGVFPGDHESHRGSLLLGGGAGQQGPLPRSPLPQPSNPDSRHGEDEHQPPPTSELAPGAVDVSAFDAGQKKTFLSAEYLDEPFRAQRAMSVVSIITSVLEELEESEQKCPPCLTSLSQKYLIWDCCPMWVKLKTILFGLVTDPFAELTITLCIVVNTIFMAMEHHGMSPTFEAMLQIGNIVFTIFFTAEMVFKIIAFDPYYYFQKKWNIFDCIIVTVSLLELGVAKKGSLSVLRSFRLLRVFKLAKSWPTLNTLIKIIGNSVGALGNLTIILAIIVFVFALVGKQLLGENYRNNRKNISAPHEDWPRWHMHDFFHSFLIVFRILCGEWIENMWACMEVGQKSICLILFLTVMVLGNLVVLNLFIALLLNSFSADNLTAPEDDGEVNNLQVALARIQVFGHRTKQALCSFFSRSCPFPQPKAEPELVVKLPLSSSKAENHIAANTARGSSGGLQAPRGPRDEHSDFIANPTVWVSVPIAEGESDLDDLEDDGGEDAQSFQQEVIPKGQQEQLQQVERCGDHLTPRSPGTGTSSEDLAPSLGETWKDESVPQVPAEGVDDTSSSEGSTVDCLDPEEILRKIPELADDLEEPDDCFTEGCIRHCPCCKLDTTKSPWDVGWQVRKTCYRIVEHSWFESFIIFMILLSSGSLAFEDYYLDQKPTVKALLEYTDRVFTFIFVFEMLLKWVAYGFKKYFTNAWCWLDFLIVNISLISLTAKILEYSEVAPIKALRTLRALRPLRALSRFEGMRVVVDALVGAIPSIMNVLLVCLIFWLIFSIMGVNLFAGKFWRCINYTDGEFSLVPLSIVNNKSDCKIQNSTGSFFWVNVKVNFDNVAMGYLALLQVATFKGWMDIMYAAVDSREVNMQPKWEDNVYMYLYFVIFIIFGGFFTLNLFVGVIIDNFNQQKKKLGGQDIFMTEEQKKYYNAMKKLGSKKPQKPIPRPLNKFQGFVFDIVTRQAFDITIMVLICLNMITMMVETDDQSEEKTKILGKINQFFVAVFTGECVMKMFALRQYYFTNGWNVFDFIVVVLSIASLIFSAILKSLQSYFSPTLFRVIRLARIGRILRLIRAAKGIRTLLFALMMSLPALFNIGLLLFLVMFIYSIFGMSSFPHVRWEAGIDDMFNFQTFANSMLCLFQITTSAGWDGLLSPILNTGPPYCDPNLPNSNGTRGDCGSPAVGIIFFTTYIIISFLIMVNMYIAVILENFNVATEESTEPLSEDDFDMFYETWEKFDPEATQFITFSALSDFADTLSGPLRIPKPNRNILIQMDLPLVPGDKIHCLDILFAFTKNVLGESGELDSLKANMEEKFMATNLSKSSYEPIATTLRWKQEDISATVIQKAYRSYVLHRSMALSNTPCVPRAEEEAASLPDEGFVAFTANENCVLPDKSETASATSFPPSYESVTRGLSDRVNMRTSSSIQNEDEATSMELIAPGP

Row | Compound | IC50
1 | COC(=O)c1ccnc(NC(=O)c2c(Oc3ccc(OC(F)(F)F)c(F)c3OC)ccc(C(F)(F)F)c2C)c1 [Compound 24, Methyl 2-[[6-[3-fluoro-2-methoxy-4-(trifluoromethoxy)phenoxy]-2-methyl-3-(trifluoromethyl)benzoyl]amino]pyridine-4-carboxylate] | ≥ 1000 nM
2 | COC(=O)c1cc(NC(=O)c2c(Oc3ccc(OC(F)(F)F)c(F)c3OC)ccc(C(F)(F)F)c2F)c(C2CC2)cn1 [Compound 27, methyl 5-cyclopropyl-4-(2-fluoro-6-(3-fluoro-2-methoxy-4-(trifluoromethoxy)phenoxy)-3-(trifluoromethyl)benzamido)picolinate] | ≥ 1000 nM
3 | COC(=O)c1cc(NC(=O)c2c(Oc3ccc(OC(F)(F)F)c(F)c3C)ccc(C(F)(F)F)c2F)c(C)cn1 [Compound 17, Methyl 4-[[2-fluoro-6-[3-fluoro-2-methyl-4-(trifluoromethoxy)phenoxy]-3-(trifluoromethyl)benzoyl]amino]-5-methyl-pyridine-2-carboxylate] | < 100 nM
4 | COC(=O)c1nccc(NC(=O)c2c(Oc3ccc(OC(F)(F)F)c(F)c3OC)ccc(C(F)(F)F)c2C)c1F [Compound 31, methyl 3-fluoro-4-(6-(3-fluoro-2-methoxy-4-(trifluoromethoxy)phenoxy)-2-methyl-3-(trifluoromethyl)benzamido)picolinate] | ≥ 1000 nM
5 | COC(=O)c1cc(NC(=O)c2c(Oc3ccc(OC(F)(F)F)cc3)ccc(C(F)(F)F)c2F)ccn1 [Compound 3, methyl 4-[[2-fluoro-6-[4-(trifluoromethoxy)phenoxy]-3-(trifluoromethyl)benzoyl]amino]pyridine-2-carboxylate] | 100 to 500 nM
6 | COC(=O)c1nccc(NC(=O)c2c(Oc3ccc(F)c(F)c3C)ccc(C(F)(F)F)c2C)c1C [Compound 19, Methyl 4-[[6-(3,4-difluoro-2-methyl-phenoxy)-2-methyl-3-(trifluoromethyl)benzoyl]amino]-3-methyl-pyridine-2-carboxylate] | ≥ 1000 nM
7 | COC(=O)c1ccc(NC(=O)c2c(Oc3ccc(OC(F)(F)F)c(F)c3OC)ccc(C(F)(F)F)c2F)cn1 [Compound 14, Methyl 5-[[2-fluoro-6-[3-fluoro-2-methoxy-4-(trifluoromethoxy)phenoxy]-3-(trifluoromethyl)benzoyl]amino]pyridine-2-carboxylate] | 100 to 500 nM
8 | [2H]C([2H])([2H])Oc1cc(OC(F)(F)F)ccc1Oc1ccc(C(F)(F)F)c(F)c1C(=O)Nc1ccc(C(=O)OC)nc1 [Compound 11, methyl 5-[[2-fluoro-6-[2-(trideuteriomethoxy)-4-(trifluoromethoxy)phenoxy]-3-(trifluoromethyl)benzoyl]amino]pyridine-2-carboxylate] | 100 to 500 nM
9 | COC(=O)c1nccc(NC(=O)c2c(Oc3ccc(OC(F)(F)F)c(F)c3OC)ccc(C(F)(F)F)c2C)c1C [Compound 32, methyl 4-(6-(3-fluoro-2-methoxy-4-(trifluoromethoxy)phenoxy)-2-methyl-3-(trifluoromethyl)benzamido)-3-methylpicolinate] | ≥ 1000 nM

Continued, values first:

Row | IC50 | Compound
10 | 500 to 1000 nM | COC(=O)c1ccnc(NC(=O)c2c(Oc3ccc(OC(F)(F)F)c(F)c3OC)ccc(C(F)(F)F)c2F)c1 [Compound 23, Methyl 2-[[2-fluoro-6-[3-fluoro-2-methoxy-4-(trifluoromethoxy)phenoxy]-3-(trifluoromethyl)benzoyl]amino]pyridine-4-carboxylate]
11 | 500 to 1000 nM | COC(=O)c1nccc(NC(=O)c2c(Oc3ccc(OC(F)(F)F)cc3OC)ccc(C(F)(F)F)c2F)c1F [Compound 29, methyl 3-fluoro-4-(2-fluoro-6-(2-methoxy-4-(trifluoromethoxy)phenoxy)-3-(trifluoromethyl)benzamido)picolinate]
12 | ≥ 1000 nM | COC(=O)c1cc(NC(=O)c2c(Oc3ccc(OC(F)(F)F)cc3OC)ccc(C(F)(F)F)c2F)c(C2CC2)cn1 [Compound 26, methyl 5-cyclopropyl-4-(2-fluoro-6-(2-methoxy-4-(trifluoromethoxy)phenoxy)-3-(trifluoromethyl)benzamido)picolinate]
13 | 500 to 1000 nM | [2H]C([2H])([2H])Oc1cc(OC(F)(F)F)ccc1Oc1ccc(C(F)(F)F)cc1C(=O)Nc1ccnc(C(=O)OC)c1 [Compound 8, methyl 4-[[2-[2-(trideuteriomethoxy)-4-(trifluoromethoxy)phenoxy]-5-(trifluoromethyl)benzoyl]amino]pyridine-2-carboxylate]
14 | 100 to 500 nM | COC(=O)c1ccc(NC(=O)c2c(Oc3ccc(OC(F)(F)F)cc3OC)ccc(C(F)(F)F)c2F)cn1 [Compound 15, Methyl 5-[[2-fluoro-6-[2-methoxy-4-(trifluoromethoxy)phenoxy]-3-(trifluoromethyl)benzoyl]amino]pyridine-2-carboxylate]
15 | ≥ 1000 nM | COC(=O)c1ccc(NC(=O)c2c(Oc3ccc(F)cc3OC)ccc(C(F)(F)F)c2F)cn1 [Compound 10, methyl 5-[[2-fluoro-6-(4-fluoro-2-methoxy-phenoxy)-3-(trifluoromethyl)benzoyl]amino]pyridine-2-carboxylate]
16 | 100 to 500 nM | COC(=O)c1cc(NC(=O)c2c(Oc3ccc(OC(F)(F)F)cc3OC)ccc(C(F)(F)F)c2O)ccn1 [Compound 25, Methyl 4-[[2-hydroxy-6-[2-methoxy-4-(trifluoromethoxy)phenoxy]-3-(trifluoromethyl)benzoyl]amino]pyridine-2-carboxylate]
17 | ≥ 1000 nM | COC(=O)c1ccc(NC(=O)c2c(Oc3ccc(OC(F)(F)F)cc3)ccc(C(F)(F)F)c2F)cn1 [Compound 13, methyl 5-[[2-fluoro-6-[4-(trifluoromethoxy)phenoxy]-3-(trifluoromethyl)benzoyl]amino]pyridine-2-carboxylate]
18 | ≥ 1000 nM | [2H]C([2H])([2H])Oc1cc(OC(F)(F)F)ccc1Oc1cc(C(F)(F)F)c(F)cc1C(=O)Nc1ccnc(NC(=O)OC(C)(C)C)c1 [Compound 7, tert-butyl N-[4-[[5-fluoro-2-[2-(trideuteriomethoxy)-4-(trifluoromethoxy)phenoxy]-4-(trifluoromethyl)benzoyl]amino]-2-pyridyl]carbamate]
19 | ≥ 1000 nM | [2H]C([2H])([2H])Oc1cc(OC(F)(F)F)ccc1Oc1cc(C(F)(F)F)c(F)cc1C(=O)Nc1ccc(C(=O)OC)nc1 [Compound 1, Methyl 5-[[5-fluoro-2-[2-(trideuteriomethoxy)-4-(trifluoromethoxy)phenoxy]-4-(trifluoromethyl)benzoyl]amino]pyridine-2-carboxylate]
20 | ≥ 1000 nM | [2H]C([2H])([2H])Oc1cc(OC(F)(F)F)ccc1Oc1ccc(C(F)(F)F)cc1C(=O)Nc1ccc(C(=O)OC)nc1 [Compound 12, methyl 5-[[2-[2-(trideuteriomethoxy)-4-(trifluoromethoxy)phenoxy]-5-(trifluoromethyl)benzoyl]amino]pyridine-2-carboxylate]
21 | ≥ 1000 nM | COC(=O)c1cc(NC(=O)c2c(Oc3ccc(OC(F)(F)F)c(F)c3OC)ccc(C(F)(F)F)c2C)c(C2CC2)cn1 [Compound 28, methyl 5-cyclopropyl-4-(6-(3-fluoro-2-methoxy-4-(trifluoromethoxy)phenoxy)-2-methyl-3-(trifluoromethyl)benzamido)picolinate]
22 | 500 to 1000 nM | COC(=O)c1cc(NC(=O)c2c(Oc3ccc(F)c(F)c3C)ccc(C(F)(F)F)c2C)c(C)cn1 [Compound 18, Methyl 4-[[6-(3,4-difluoro-2-methyl-phenoxy)-2-methyl-3-(trifluoromethyl)benzoyl]amino]-5-methyl-pyridine-2-carboxylate]
